Assay [1] concerns PANC08.13 (pancreatic cancer cell line). As to the kind of experiment: KRAS Cell Titer Glo (CTG) cell proliferation assay, PANC08.13. In kind it is cell-based. As to conditions: Homo sapiens, PANC-08-13, 168 h; PANC08.13 cells, 7-day CTG, geomean IC50. The text has this:
(§1) The CellTiter-Glo® (CTG) Luminescent Cell Viability Assay is a homogeneous method of determining the number of viable cells in culture based on quantitation of the ATP present, an indicator of metabolically active cells. The CTG is designed for use with multi-well formats, making it ideal for automated high-throughput screening (HTS), cell proliferation and cytotoxicity assays. The homogeneous assay procedure involves adding the single reagent (CellTiter-Glo® Reagent) directly to cells cultured in serum-supplemented medium. Cell washing, removal of medium and multiple pipetting steps are not required. The system detects as few as 15 cells per well in a 384-well format in 10 minutes after adding reagent and mixing.
(§2) Cells are grown in humidified 5% CO2 incubator at 37° C. using the culture conditions outlined below. All cell culture media reagents were purchased from Gibco. Cell lines purchased from ATCC: H358 (non-small cell lung cancer cell line), SW620 (colorectal cancer cell line), PANC08.13 (RPM11640+10% FBS+10 units/mL Insulin, pancreatic cancer cell line). Test and control compounds are dispensed as nanoliter drops according to desired final concentrations in 0.1% DMSO using Echo Acoustic Dispenser onto 384 assay plates (Corning, Cat #3764) prior to cell seeding. Cells were seeded in 40 μL volume per well at the following cell densities (cells per well): H358 (300), SW620 (750), PANC 08.13 (600). Cells are incubated in the presence of compound for 7-days. Viability is determined on Day 7 using CellTiter-Glo® (CTG) Luminescent Cell Viability Assay (Promega). CTG is added to a […] per well and incubated at room temperature for 15 minutes before luminescence is captured using an EnVision Reader with LUM384 US protocol. Data is analyzed using Activity Base to determine compound response and will be represented either as a percent effect (PCTEFF) or percent control (PCTOCTL) as described: Zero percent effect control (ZPE) (Negative control)—100% DMSO. Hundred percent effect (HPE) (Positive control)—1 uM Trametinib (GSK1120212, MEK inhibitor) (4 nl of 10 mM and 36 nl of DMSO per well). The following equations/nomenclature are used (% Effect; PCTEFF) and (% of Control; PCTOCTL): PCTEFF: 100*(Raw_Data_Value−HPE/ZPE−HPE), PCTOCTL: 100*Raw_Data_Value/User_Defined_Array), where the User_Defined_Array is either summarized HPE or ZPE.
(§3) Cells with “nd” indicate compound not tested in that particular assay at time of writing. It is to be understood that the geomean IC50 data may change slightly over time with increasing repeat data (ie: increasing n #).
On the technique in general: ATP-based viability assays read luminescence as a measure of living cells.

Assay [2] relates to H358 (non-small cell lung cancer cell line). As to the kind of experiment: KRAS Cell Titer Glo (CTG) cell proliferation assay, H358. Format: cell-based. As to conditions: Homo sapiens, NCI-H358, 168 h; H358 cells, 7-day CTG, geomean IC50.
Excerpt: as §1, §2, §3

In the next assay the target is KRAS G12C (Homo sapiens (Human), UniProt P01116, G12C). The assay is described as follows: SPR binding affinity and kinetics, GTPγS-loaded KRAS G12C. As to conditions: GTPγS loaded protein, geomean. An excerpt:
(§4) No additional regeneration was used.
(§5) Compound dissociation was monitored for at least 3600 seconds. […] No additional regeneration was used.
(§6) The adequateness of the fit was judged by c2 values and the randomness of residue distribution.
For orientation: SPR reads the build-up and loss of mass on a sensor chip optically.

The target of another assay is KRAS Wild Type (Homo sapiens (Human), UniProt P01116). As to the kind of experiment: SPR binding affinity and kinetics, GTPγS-loaded KRAS Wild Type. The conditions noted are these: GTPγS loaded protein, geomean.
Sequence of KRAS Wild Type (P01116 other isoform, or with tags, fused parts or gaps): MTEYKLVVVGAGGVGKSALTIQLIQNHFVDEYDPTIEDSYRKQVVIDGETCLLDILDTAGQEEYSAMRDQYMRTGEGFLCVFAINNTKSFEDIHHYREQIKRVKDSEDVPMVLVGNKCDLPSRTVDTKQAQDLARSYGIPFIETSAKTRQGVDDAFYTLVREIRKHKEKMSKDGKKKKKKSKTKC
Excerpt: as §4, §5, §6

Another assay concerns the target KRAS G12D (Homo sapiens (Human), UniProt P01116, G12D). As to the kind of experiment: SPR binding affinity and kinetics, GTPγS-loaded KRAS G12D. The conditions noted are these: GTPγS loaded protein, geomean.
Excerpt: as §4, §5, §6

In another assay the target is KRAS G12V (Homo sapiens (Human), UniProt P01116, G12V). As to the kind of experiment: SPR binding affinity and kinetics, GTPγS-loaded KRAS G12V. The conditions noted are these: GTPγS loaded protein, geomean.
Sequence of KRAS G12V (P01116 other isoform, or with tags, fused parts or gaps G12V): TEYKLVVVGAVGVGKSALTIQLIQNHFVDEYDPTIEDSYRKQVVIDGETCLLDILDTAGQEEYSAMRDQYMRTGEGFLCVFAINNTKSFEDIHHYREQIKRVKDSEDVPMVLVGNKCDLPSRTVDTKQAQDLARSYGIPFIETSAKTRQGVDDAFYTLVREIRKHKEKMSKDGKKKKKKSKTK
Excerpt: as §4, §5, §6

Assay [3] deals with SW620 (colorectal cancer cell line). As to the kind of experiment: KRAS Cell Titer Glo (CTG) cell proliferation assay, SW620. Format: cell-based. As to conditions: Homo sapiens, SW-620, 168 h; SW620 cells, 7-day CTG, geomean IC50.
Excerpt: as §1, §2, §3

Sequence of KRAS G12C (P01116 other isoform, or with tags, fused parts or gaps G12C): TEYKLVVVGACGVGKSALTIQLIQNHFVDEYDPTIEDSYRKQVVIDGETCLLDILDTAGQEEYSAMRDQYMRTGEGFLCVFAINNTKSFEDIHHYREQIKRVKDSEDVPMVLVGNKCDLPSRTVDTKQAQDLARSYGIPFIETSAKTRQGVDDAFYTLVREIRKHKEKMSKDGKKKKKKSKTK
Sequence of KRAS G12D (P01116 other isoform, or with tags, fused parts or gaps G12D): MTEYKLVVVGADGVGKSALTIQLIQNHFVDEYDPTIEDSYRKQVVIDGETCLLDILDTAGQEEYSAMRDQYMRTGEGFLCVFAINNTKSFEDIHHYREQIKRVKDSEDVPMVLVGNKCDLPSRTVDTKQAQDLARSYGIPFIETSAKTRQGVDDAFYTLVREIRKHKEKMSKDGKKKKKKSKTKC

By IC50 is commonly meant the concentration that gives 50% inhibition. As a reminder, the Kd is the free concentration of one partner at which half of the binding sites on the other are occupied at equilibrium, for simple one-to-one binding. Consider `C=C1CN2CCC[C@@]2(COc2nc3c4c(nc(-c5c(Cl)c(C)cc6[nH]ncc56)c(F)c4n2)OC[C@@H]2COCCCN32)C1` [Example 8], for which the figures for the IC50 in assay [1], in assay [2] and in assay [3] were 48 nM, 263 nM and 294 nM, respectively. Further, the Kd is 176 nM on KRAS G12C, 117 nM at KRAS Wild Type, 141 nM on KRAS G12D and 105 nM at KRAS G12V.

In the case of `C=C1CN2CC(F)C[C@@]2(COc2nc3c4c(nc(-c5c(C6CC6)c(Cl)cc6[nH]ncc56)c(F)c4n2)OC[C@@H]2COCCCN32)C1` (stereo partly drawn) [Example 14, (8aS)-5-(6-chloro-5-cyclopropyl-1H-indazol-4-yl)-4-fluoro-2-{[(2R,7aR)-2-fluoro-6-methylidenetetrahydro-1H-pyrrolizin-7a(5H)-yl]methoxy}-8a,9,12,13-tetrahydro-8H,11H-7,10-dioxa-1,3,6,13a-tetraazanaphtho[1,8-ab]heptalene], the IC50 in assay [1] worked out at 13 nM; in assay [2], 80 nM; in assay [3] it was 30 nM. For the same compound, the Kd at KRAS G12C was 9 nM; on KRAS Wild Type, 8 nM; on KRAS G12D it was 5 nM; on KRAS G12V, 7 nM.

As for `F/C=C1/CN2CCC[C@@]2(COc2nc3c4c(nc(-c5c(C6CC6)c(Cl)cc6[nH]ncc56)c(F)c4n2)OC[C@@H]2COCCCN32)C1` [Example 15, (8aS)-5-(6-chloro-5-cyclopropyl-1H-indazol-4-yl)-4-fluoro-2-{[(2E,7aS)-2-(fluoromethylidene)tetrahydro-1H-pyrrolizin-7a(5H)-yl]methoxy}-8a,9,12,13-tetrahydro-8H,11H-7,10-dioxa-1,3,6,13a-tetraazanaphtho[1,8-ab]heptalene], the IC50 is 3 nM in assay [1], 30 nM in assay [2] and 31 nM in assay [3]. Moreover, the Kd at KRAS G12C was 5 nM; on KRAS Wild Type it was 4 nM; at KRAS G12D, 2 nM; at KRAS G12V it was 4 nM.

With `C=C1CN2C[C@@H](O)C[C@@]2(COc2nc3c4c(nc(-c5c(C6CC6)c(Cl)cc6[nH]ncc56)c(F)c4n2)OC[C@@H]2COCCCN32)C1` [Example 17, (2S,7aR)-7a-({[(8aS)-5-(6-chloro-5-cyclopropyl-1H-indazol-4-yl)-4-fluoro-8a,9,12,13-tetrahydro-8H,11H-7,10-dioxa-1,3,6,13a-tetraazanaphtho[1,8-ab]heptalen-2-yl]oxy}methyl)-6-methylidenehexahydro-1H-pyrrolizin-2-ol], the figures for the IC50 in assay [1], in assay [2] and in assay [3] were 31 nM, 80 nM and 190 nM, respectively. Also, the Kd on KRAS G12C is 5 nM; at KRAS Wild Type, 5 nM; on KRAS G12D, 3 nM; at KRAS G12V, 4 nM.

Regarding `Fc1c(-c2c(C3CC3)c(Cl)cc3[nH]ncc23)nc2c3c(nc(OC[C@@]45CCCN4CC4(CC4)C5)nc13)N1CCCOC[C@H]1CO2` [Example 18, (8aS)-2-{[(7′aS)-dihydro-1′H,3′H-spiro[cyclopropane-1,2′-pyrrolizin]-7′a(5′H)-yl]methoxy}-5-(6-chloro-5-cyclopropyl-1H-indazol-4-yl)-4-fluoro-8a,9,12,13-tetrahydro-8H,11H-7,10-dioxa-1,3,6,13a-tetraazanaphtho[1,8-ab]heptalene], the IC50 in assay [1] was 68 nM; in assay [2], 304 nM; in assay [3] it was 479 nM. In addition, the Kd amounted to 64 nM on KRAS G12C, 61 nM on KRAS Wild Type, 34 nM on KRAS G12D and 61 nM on KRAS G12V.

In the case of `C=C1CN2C[C@H](O)C[C@@]2(COc2nc3c4c(nc(-c5c(C6CC6)c(Cl)cc6[nH]ncc56)c(F)c4n2)OC[C@@H]2COCCCN32)C1` [Example 25, (2R,7aR)-7a-({[(8aS)-5-(6-chloro-5-cyclopropyl-1H-indazol-4-yl)-4-fluoro-8a,9,12,13-tetrahydro-8H,11H-7,10-dioxa-1,3,6,13a-tetraazanaphtho[1,8-ab]heptalen-2-yl]oxy}methyl)-6-methylidenehexahydro-1H-pyrrolizin-2-ol], the IC50 in assay [1] was determined as 13 nM; in assay [2], 41 nM; in assay [3], 22 nM. The Kd on KRAS G12C was 2 nM; on KRAS Wild Type, 4 nM; at KRAS G12D, 3 nM; on KRAS G12V, 2 nM.

Take `C/C=C1/CN2CCC[C@@]2(COc2nc3c4c(nc(-c5c(C6CC6)c(Cl)cc6[nH]ncc56)c(F)c4n2)OC[C@@H]2COCCCN32)C1` [Example 27, (8aS)-5-(6-chloro-5-cyclopropyl-1H-indazol-4-yl)-2-{[(2E,7aS)-2-ethylidenetetrahydro-1H-pyrrolizin-7a(5H)-yl]methoxy}-4-fluoro-8a,9,12,13-tetrahydro-8H,11H-7,10-dioxa-1,3,6,13a-tetraazanaphtho[1,8-ab]heptalene]: the figures for the IC50 in assay [1], in assay [2] and in assay [3] were 9 nM, 72 nM and 74 nM, respectively. For the same compound, the Kd on KRAS G12C was 3 nM; on KRAS Wild Type, 9 nM; on KRAS G12D it was 4 nM; on KRAS G12V, 6 nM.

As to `C=C1CN2CCC[C@@]2(COc2nc3c4c(nc(-c5c6c(cc7[nH]ncc57)CCC[C@@H]6C)c(F)c4n2)OC[C@@H]2COCCCN32)C1` [Example 32, (8aS)-4-fluoro-2-{[(7aS)-2-methylidenetetrahydro-1H-pyrrolizin-7a(5H)-yl]methoxy}-5-[(5S)-5-methyl-5,6,7,8-tetrahydro-1H-benzo[f]indazol-4-yl]-8a,9,12,13-tetrahydro-8H,11H-7,10-dioxa-1,3,6,13a-tetraazanaphtho[1,8-ab]heptalene], the IC50 in assay [1] amounted to 161 nM; in assay [2], 768 nM; in assay [3], 1420 nM. Also, the Kd at KRAS G12C came to 39 nM; at KRAS Wild Type, 46 nM; at KRAS G12D, 19 nM; on KRAS G12V, 36 nM.

For `C=C1CN2CCC[C@@]2(COc2nc3c4c(nc(-c5c(CC)c(Cl)cc6[nH]ncc56)c(F)c4n2)OC[C@@H]2COCCCN32)C1` [Example 33, (8aS)-5-(6-chloro-5-ethyl-1H-indazol-4-yl)-4-fluoro-2-{[(7aS)-2-methylidenetetrahydro-1H-pyrrolizin-7a(5H)-yl]methoxy}-8a,9,12,13-tetrahydro-8H,11H-7,10-dioxa-1,3,6,13a-tetraazanaphtho[1,8-ab]heptalene], the IC50 in assay [1] amounted to 18 nM; in assay [2], 58 nM; in assay [3], 103 nM. For the same compound, the equilibrium dissociation constant (Kd) at KRAS G12C was 6 nM; at KRAS Wild Type it was 8 nM; at KRAS G12D it was 6 nM; on KRAS G12V, 6 nM.

In the case of `C=C1CN2CCC[C@@]2(COc2nc3c4c(nc(-c5cccc6[nH]ncc56)c(F)c4n2)OC[C@@H]2COCCCN32)C1` [Example 34, (8aS)-4-fluoro-5-(1H-indazol-4-yl)-2-{[(7aS)-2-methylidenetetrahydro-1H-pyrrolizin-7a(5H)-yl]methoxy}-8a,9,12,13-tetrahydro-8H,11H-7,10-dioxa-1,3,6,13a-tetraazanaphtho[1,8-ab]heptalene], the IC50 in assay [1] is 9350 nM; in assay [2] it was greater than 9990 nM; in assay [3], greater than 9990 nM. In addition, the Kd at KRAS G12C, at KRAS Wild Type, on KRAS G12D and on KRAS G12V was greater than 10000 nM in each case.

Source of the values: patent publication US20250034173A1, “PYRIDO[4,3-D]PYRIMIDINE COMPOUNDS” (PFIZER INC., priority 2023, published 2025).
